# Assay results published in patent publication US5808139A (Ligand Pharmaceuticals Incorporated, priority 1994, dated 1998).
# Key:
# [1] = system: endometrium of the uterus; assay: Decidualization assay in pseudopregnant mice, oil-induced uterine weight gain; type: in vivo; settings: 0.1 mg
# Procedure: A successful pregnancy requires not only the effective collision and fusion of egg and spermatozoon, but also the provision of a receptive and supportive uterus. The preparation of the endometrium of the uterus for implantation (i.e. decidualization) starts well before the blastocyst arrives in the uterus.
# Psuedopregnant mice (i.e. mated with vasectomized males) were used to establish the assay system. […] At 16 hours of Day 4, a small volume of sesame oil (10 μl) was introduced to the lumen of the right uterine horn to serve as a decidual stimulus. The left horn was left undisturbed to serve as an internal control. Autopsies were performed on Day 7 to assess uterine wet weight gains in the stimulated versus non-stimulated uterine horns.
# Each of these compounds was intraluminally administered in an appropriate dosage on Day 4 along with the sesame oil administration.
# [2] = system: glucocorticoid, mineralocorticoid, androgen, estrogen, and retinoic acid receptors; orphan receptors; assay: Cross-reactivity with other known intracellular receptor classes; type: cell-based
# Procedure: Compound SO-9 was also tested with orphan receptors (which are receptors whose natural ligand is unknown).
# The 3R and 3S diastereomeric acetates of cyclocymopol monomethyl ether were also individually tested for cross reactivity with the other known intracellular receptor classes. […] No antagonist activity was detected with either compound.
# [3] = system: progesterone receptor (T47D cells); assay: Antagonist assay in T47D (human breast cancer) cells (Tables 1 and 2); type: cell-based
"IC50 ([3]; concentration required to reduce the maximal response by 50%, read-out: Potency (IC50), T47D cells)",Compound,Blocking of decidualization weight gain (in words) [1],"Net Uterine Weight Gain ([1]; intraluminal, autopsy Day 7, oil alone control 334.7 +/- 41.0)",Cross-reactivity with other intracellular receptors [2],"Efficacy (% maximal response relative to RU-486), T47D cells ([3]; antagonist activity, relative to RU-486)"
–,"CC#C[C@]1(O)CC[C@H]2[C@@H]3CCC4=CC(=O)CCC4=C3[C@@H](c3ccc(N(C)C)cc3)C[C@@]21C [RU-486, reference compound]",completely blocked this decidualization weight gain,9.53 ± 3.51 mg,–,–
385 nM,"C=C1CC[C@@H](Br)C(C)(C)[C@@H]1Cc1cc(OC)c(Br)cc1O [SO-53, (3R)-cyclocymopol monomethyl ether]",–,–,not to cross-react with any of the other receptors,85%
